Patent US11633370B2, “Use of scavengers of reactive gamma-ketoaldehydes to extend cell lifespan and healthspan” (Vanderbilt University, priority 2016, dated 2023)

Assays:
N2 WT C. elegans = test: IsoK-lysyl-lactam protein adduct quantification by LC/MS/MS; type: in vivo; conditions: increasing concentrations of SA until day 15, versus vehicle control; p<0.01
Description: The mechanism by which IsoKs inactivate protein targets involves covalent adduction of the epsilon amine group on the side chains of lysine residues within target proteins (FIG. 2A). The initial product of this covalent adduction is a lactam ring structure composed of the lysyl side chain and the isoketal. SA's amine group is much more reactive toward IsoKs and preserves protein function by more rapidly forming an adduct with the IsoK, preventing the adduction of lysyl side chains. If this mechanism is operative in vivo when C. elegans are treated with SA, a dose-dependent reduction in IsoK-lysyl-lactam adducts should be observed. To test this directly, WT N2 worms were treated with vehicle or increasing concentrations of SA until day 15, then collected for IsoK-lysyl-lactam adduct quantification by liquid chromatography tandem mass spectrometry (LC/MS/MS) using a heavy isotope-labeled internal standard for quantification.
Worms grown on FUDR containing SA-OP50-seeded NGM plates were collected at Day 15 adult stage by washing in M9 medium, followed by an ice-cold 60% w/v sucrose gradient to segregate clean bacteria-free adult worms from bacterial debris. Clean worms were transferred to Eppendorf tubes and flash-frozen in liquid nitrogen and thawed at 37° C. 3×. […] Levels of IsoK-lysyl-lactam adduct was measured as previously described. […]

VC199 SIR-2.1 mutants = test: Oxygen consumption rate of whole worms, VC199; type: in vivo, C. elegans; conditions: whole worms over several days; p>0.05
Description: Mitochondria lie at the center of aging biology, playing crucial roles in energy production, carbon substrate metabolism, apoptosis regulation, and redox balance and signaling. Since sirtuins play a major role in regulating mitochondrial function, the present inventors next wanted to investigate whether SA was exerting any of its effects via protection of mitochondrial processes. To investigate SA's effects on mitochondrial respiration, the present inventors administered SA to WT N2 (FIG. 5A) and non-functional SIR-2.1 mutant worms (FIG. 5B) and measured oxygen consumption rate (OCR) in whole worms over several days. […] The present inventors also examined the effect of SA treatment on mitochondrial DNA (mtDNA) integrity.
Oxygen consumption rate for whole C. elegans was measured using a Seahorse Bioscience XF^e96 Analyzer. Worms were harvested from Day 0, 2, and 15 colonies maintained on FUDR containing SA-OP50-seeded NGM plates by washing in M9 medium, followed by floatation on an ice-cold 60% w/v sucrose gradient to segregate clean bacteria-free adult worms from bacterial debris. Worms were seeded at 1,000 worms/well in M9. After 20 min equilibration, a 2-min measurement was performed to obtain basal OCR for all experimental conditions and strains.

`NCc1ccccc1O` [SA, salicylamine] was tested, and the IsoK-lysyl-lactam adduct levels (N2 WT C. elegans) was “significant, dose-dependent reduction” and the “mitochondrial oxygen consumption rate (OCR)” value (VC199 SIR-2.1 mutants) was “no effect”.
